Test results from patent publication US10654807B2, “Toll-like receptor 8 agonists” (The University Of Kansas, priority 2013, dated 2020).
“Also recorded” adds a separate entry of the source. Read-outs that look alike come from different tables or passages of the source. Each block holds one molecule with its values, some of them ahead of it.

Experiments:
[1] = test system: human peripheral blood mononuclear cells; test: cytokine/chemokine induction in human PBMCs (multiplexed bead array immunoassays); format: cell-based
Protocol: Immunoassays for Cytokines:
Fresh human peripheral blood mononuclear cells (hPBMC) were isolated from human blood obtained by venipuncture with informed consent and as per institutional guidelines on Ficoll-Hypaque gradients. Aliquots of PBMCs (10^5 cells in 100 μL/well) were stimulated for 12 h with graded concentrations of test compounds. Supernatants were isolated by centrifugation, and were assayed in triplicates using analyte-specific multiplexed cytokine/chemokine bead array assays. PBMC supernatants were also analyzed for 41 chemokines and cytokines (EGF, Eotaxin, FGF-2, Fit-3 ligand, Fractalkine, G-CSF, GM-CSF, GRO, IFN-α2, IFN-γ, IL-10, IL-12 (p40), IL-12 (p70), IL-13, IL-15, IL-17, IL-1ra, IL-1α, IL-1β, IL-2, IL-3, IL-4, IL-5, IL-6, IL-7, IL-8, IL-9, IP-10, MCP-1, MCP-3, MDC (CCL22), MIP-1α, MIP-1β, PDGF-AA, PDGF-AB/BB, RANTES, TGFα, TNF-α, TNF-β, VEGF, sCD40L) using a magnetic bead-based multiplexed assay kit (Milliplex MAP Human Cytokine/Chemokine kit). Data were acquired and processed on a MAGPIX instrument (EMD Millipore, Billerica, Mass.) with an intra-assay coefficients of variation ranging from 4-8% for the 41 analytes.

human TLR8 = target: T1, human TLR8 (Homo sapiens, UniProt Q9NR97); test: human TLR8-specific HEK-Blue reporter gene assay (NF-κB induction); format: cell-based; conditions: for TLR8 agonistic activity: TLR8 primary screen
T1 construct: HEK293 cells stably co-transfected with the appropriate hTLR, MD2, and secreted alkaline phosphatase (sAP); expressed in transfected cells; host or cells: HEK293 (HEK-Blue™)
T1 sequence (Q9NR97 27-1041): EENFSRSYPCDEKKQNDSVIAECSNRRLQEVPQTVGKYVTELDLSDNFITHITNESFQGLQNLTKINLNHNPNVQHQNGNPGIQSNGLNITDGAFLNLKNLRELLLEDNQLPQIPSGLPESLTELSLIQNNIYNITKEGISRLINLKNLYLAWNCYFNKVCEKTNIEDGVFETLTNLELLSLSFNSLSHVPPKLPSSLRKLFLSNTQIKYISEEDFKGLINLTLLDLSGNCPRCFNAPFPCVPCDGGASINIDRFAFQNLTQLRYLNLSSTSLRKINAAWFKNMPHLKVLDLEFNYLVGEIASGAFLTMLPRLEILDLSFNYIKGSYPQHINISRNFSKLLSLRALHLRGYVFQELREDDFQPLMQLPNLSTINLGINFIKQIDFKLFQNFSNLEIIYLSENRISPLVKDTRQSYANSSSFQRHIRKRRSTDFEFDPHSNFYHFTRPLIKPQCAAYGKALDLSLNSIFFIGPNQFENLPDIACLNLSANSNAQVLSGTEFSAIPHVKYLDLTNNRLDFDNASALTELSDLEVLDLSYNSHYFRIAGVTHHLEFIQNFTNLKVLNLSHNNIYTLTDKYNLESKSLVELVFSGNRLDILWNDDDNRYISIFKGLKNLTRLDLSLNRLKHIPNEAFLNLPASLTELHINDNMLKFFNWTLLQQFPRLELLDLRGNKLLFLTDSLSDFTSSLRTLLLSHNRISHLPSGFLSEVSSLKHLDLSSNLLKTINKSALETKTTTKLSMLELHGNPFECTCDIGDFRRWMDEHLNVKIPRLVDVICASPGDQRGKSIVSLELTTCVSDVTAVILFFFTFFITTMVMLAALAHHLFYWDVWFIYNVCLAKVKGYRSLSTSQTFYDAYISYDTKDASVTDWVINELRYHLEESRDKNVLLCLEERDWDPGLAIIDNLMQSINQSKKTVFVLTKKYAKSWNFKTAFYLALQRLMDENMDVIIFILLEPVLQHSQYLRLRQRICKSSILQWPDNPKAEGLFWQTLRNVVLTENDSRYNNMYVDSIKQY
Description: (§1) Human TLR2/-3/-4/-5/-7/-8/-9 Reporter Gene Assays (NF-κB Induction):
(§2) The induction of NF-κB was quantified using human TLR2/-3/-4/-5/-7/-8/-9-specific HEK-Blue™ reporter gene assays as previously described. HEK293 cells stably co-transfected with the appropriate hTLR, MD2, and secreted alkaline phosphatase (sAP), were maintained in HEK-Blue™ Selection medium containing zeocin and normocin. Stable expression of secreted alkaline phosphatase (sAP) under control of NF-κB/AP-1 promoters is inducible by appropriate TLR agonists, and extracellular sAP in the supernatant is proportional to NF-κB induction.

[2] = test system: human TLR2, TLR3, TLR4, TLR5, TLR7, TLR9, TLR10, Nod1 and Nod2; test: counter-screens in reporter cell lines specific for other human TLRs and Nod1/2; format: cell-based
Description: as §1, §2

[3] = test system: human natural killer cells; test: CD69 upregulation by flow cytometry in whole human blood; format: cell-based; conditions: 16.5 h, FIG. 8
Protocol: Flow-Cytometric Immunostimulation Experiments:
CD69 upregulation was determined by flow cytometry. Briefly, heparin-anticoagulated whole blood samples were obtained by venipuncture from healthy human volunteers with informed consent and as per guidelines approved by the University of Kansas Human Subjects Experimentation Committee. […] Negative (endotoxin free water) controls were included in each experiment. Following incubation, 200 μL aliquots of anticoagulated whole blood were stained with 20 µL of fluorochrome-conjugated antibodies at 37° C. in the dark for 30 min. For triple color flow cytometry experiments, CD3-PE, CD56-APC, CD69-PE-Cy7 were used to analyze CD69 activation of each of the main peripheral blood lymphocyte populations: natural killer lymphocytes (NK cells: CD3^−CD56^+), cytokine-induced killer phenotype (CIK cells: CD3^+CD56^+), nominal B lymphocytes (CD3^−CD56^−), and nominal T lymphocytes (CD3^+CD56^−). Following staining, erythrocytes were lysed and leukocytes fixed in one step by mixing 200 μL of the samples in 4 mL pre-warmed Whole Blood Lyse/Fix Buffer (Becton-Dickinson Biosciences, San Jose, Calif.). After washing the cells twice at 200 g for 8 minutes in saline, the cells were transferred to a 96-well plate. […]

whole human blood = test: proinflammatory cytokine induction in human blood; format: cell-based; conditions: FIGS. 6A-6D, Compound 2 as reference
human ex vivo blood = conditions: transcriptomal profiling
[4] = test system: human TLR2/3/4/5/7/8/9 and NOD1/2; test: primary screens: panel of reporter gene assays for TLR and NOD modulatory activities; conditions: human TLR2/3/4/5/7/8/9 and NOD1/2 reporter gene assays
Description: as §1, §2

TLR7/TLR8 = conditions: background statement; cited from earlier work
[5] = human TLR8-specific reporter gene assays, Table 1, read-out: Agonistic Activity EC50 (μM) TLR8
[6] = human TLR8-specific reporter gene assays, Table 1
[7] = cell-based TLR8-specific NF-κB transactivation assay, read-out: TLR8 agonistic potency EC50

SMILES: CCCCc1nc2c(N)nc3ccccc3c2n1Cc1ccccc1 [1-benzyl-2-butyl-1H-imidazo[4,5-c]quinolin-4-amine]
induction of G-CSF, GRO, MIP-1α and MIP-1β ([1]; 41-analyte multiplexed assay, human PBMCs, FIG. 9): did not

EC50 (human TLR8; [5]): 2.18 µM
SMILES: CCCCOc1cc2ccccc2nc1N [Compound 6, 3-(Butyloxy)quinolin-2-amine]
activity in counter-screens / specificity for human TLR8 [2]: specific for human TLR8

EC50 (human TLR8; [5]): 7 µM
SMILES: CCCCCOc1cc2ccccc2nc1N [Compound 6d, 3-(Pentyloxy)quinolin-2-amine]

EC50 (human TLR8; [5]): 50 µM
SMILES: CCCCCCOc1cc2ccccc2nc1N [Compound 6e, 3-(Hexyloxy)quinolin-2-amine]

EC50 (human TLR8; [5]): 50 µM
SMILES: CC(C)COc1cc2ccccc2nc1N [Compound 6g, 3-(Isobutyloxy)quinolin-2-amine]

EC50 (human TLR8; [5]): 50 µM
SMILES: CC(C)CCOc1cc2ccccc2nc1N [Compound 6h, 3-(Isopentyloxy)quinolin-2-amine]

EC50 (human TLR8; [5]): 4.28 µM
SMILES: CCCCNc1cc2ccccc2nc1N [Compound 9, N^3-Butylquinoline-2,3-diamine]
activity in counter-screens / specificity for human TLR8 [2]: specific for human TLR8

SMILES: CCCCSc1cc2ccccc2nc1N [Compound 12, 3-(Butylthio)quinolin-2-amine]
activity in counter-screens / specificity for human TLR8 [2]: specific for human TLR8

SMILES: CCCCCc1cc2ccccc2nc1N [Compound 14b, 3-Pentylquinolin-2-amine]
cytokine/chemokine induction profile ([1]; human PBMCs as well as whole human blood, FIGS. 3A-3T): induction of a specific set of chemokines and proinflammatory cytokines, including interleukins 12 and 18

Agonistic Activity EC50 (μM) TLR8 (human TLR8; [6]): Inactive
SMILES: CCCCCCc1cc2ccccc2nc1N [Compound 14c, 3-Hexylquinolin-2-amine]

EC50 (human TLR8; [5]): 2.67 µM
SMILES: CCC/C=C/c1cc2ccccc2nc1N [Compound 14d, (E)-3-(Pent-1-en-1-yl)quinolin-2-amine]

EC50 (human TLR8; [5]): 13 µM
SMILES: CCCC#Cc1cc2ccccc2nc1N [Compound 14f, 3-(Pent-1-yn-1-yl)quinolin-2-amine]

Agonistic Activity EC50 (μM) TLR8 (human TLR8; [6]): Inactive^a
SMILES: CCCCCc1c(N)nc2ccccc2c1C [Compound 21a, 4-Methyl-3-pentylquinolin-2-amine]

Agonistic Activity EC50 (μM) TLR8 (human TLR8; [6]): Inactive
SMILES: CCCCCc1c(N)nc2ccccc2c1CC [Compound 21b, 4-Ethyl-3-pentylquinolin-2-amine]

Agonistic Activity EC50 (μM) TLR8 (human TLR8; [6]): Inactive
SMILES: CCCCCc1c(N)nc2ccccc2c1CCC(C)C [Compound 21c, 4-Isopentyl-3-pentylquinolin-2-amine]

Agonistic Activity EC50 (μM) TLR8 (human TLR8; [6]): Inactive
SMILES: CCCCOc1cc(N)nc2ccccc12 [Compound 24a, 4-(Butyloxy)quinolin-2-amine]

Agonistic Activity EC50 (μM) TLR8 (human TLR8; [6]): Inactive
SMILES: CCCCCOc1cc(N)nc2ccccc12 [Compound 24b, 4-(Pentyloxy)quinolin-2-amine]

Agonistic Activity EC50 (μM) TLR8 (human TLR8; [6]): Inactive
SMILES: CCCCc1cc(N)nc2ccccc12 [Compound 27a, 4-Butylquinolin-2-amine]

Agonistic Activity EC50 (μM) TLR8 (human TLR8; [6]): Inactive
SMILES: CCCCCc1cc(N)nc2ccccc12 [Compound 27b, 4-Pentylquinolin-2-amine]

TLR8 agonistic activity (human TLR8): inactive
SMILES: Nc1nc2ccccc2c2ccoc12 [Compound A8a, furo[2,3-c]quinolin-4-amine]

TLR8 agonistic activity (human TLR8): lower agonistic potencies
SMILES: Cc1cc2c(o1)c(N)nc1ccccc12 [Compound A8b, 2-methylfuro[2,3-c]quinolin-4-amine]

TLR8 agonistic activity (human TLR8): lower agonistic potencies
SMILES: CCCc1cc2c(o1)c(N)nc1ccccc12 [Compound A8c, 2-propylfuro[2,3-c]quinolin-4-amine]

SMILES: CCCCc1cc2c(o1)c(N)nc1ccccc12 [Compound A8d, 2-butylfuro[2,3-c]quinolin-4-amine]
CD69 expression on natural killer lymphocytes [3]: absence of natural killer lymphocyte activation; also recorded: absence of CD69 upregulation | induction of TNF-α, IL-1β, IL-6 and IL-8 (whole human blood): induce TNF-α, IL-β, IL-6 and IL-8 in a dose-dependent manner, albeit with a lower potency than Compound 2 | IFN-α transcription (human ex vivo blood): induced only by Compound 2 | induction of proinflammatory cytokine transcripts (human ex vivo blood): strong induction of proinflammatory cytokine transcripts (including IL-12 and IL-18)

TLR8 agonistic activity (human TLR8): lower agonistic potencies
SMILES: CCCCCc1cc2c(o1)c(N)nc1ccccc12 [Compound A8e, 2-pentylfuro[2,3-c]quinolin-4-amine]

TLR8 agonistic activity (human TLR8): lower agonistic potencies
SMILES: CCCCCCc1cc2c(o1)c(N)nc1ccccc12 [Compound A8f, 2-hexylfuro[2,3-c]quinolin-4-amine]

TLR8 agonistic activity (human TLR8): inactive
SMILES: Nc1nc2ccccc2c2cc(-c3ccccc3)oc12 [Compound A8n, 2-phenylfuro[2,3-c]quinolin-4-amine]

TLR8 agonistic activity (human TLR8): inactive
SMILES: Nc1nc2ccccc2c2cc(Cc3ccccc3)oc12 [Compound A8o, 2-benzylfuro[2,3-c]quinolin-4-amine]

TLR8 agonistic activity (human TLR8): do not display TLR8 agonism
SMILES: Nc1nc2ccccc2c2cc(CCCO)oc12 [Compound A8r, 3-(4-aminofuro[2,3-c]quinolin-2-yl)propan-1-ol]

TLR8 agonistic activity (human TLR8): do not display TLR8 agonism
SMILES: CC(C)CC(O)c1cc2c(o1)c(N)nc1ccccc12 (centres unmarked) [Compound A8u, 1-(4-aminofuro[2,3-c]quinolin-2-yl)-3-methylbutan-1-ol]

TLR8 agonistic activity (human TLR8): do not display TLR8 agonism
SMILES: CC(O)Cc1cc2c(o1)c(N)nc1ccccc12 (centres unmarked) [Compound A8v, 1-(4-aminofuro[2,3-c]quinolin-2-yl)propan-2-ol]

SMILES: CCOCCc1cc2c(o1)c(N)nc1ccccc12 [Compound A8w, 2-(2-ethoxyethyl)furo[2,3-c]quinolin-4-amine]
activity in primary screens (reporter gene panel) [4]: none of these compounds were active in any primary screens

SMILES: NCc1cc2c(o1)c(N)nc1ccccc12 [Compound A8x, 2-(aminomethyl)furo[2,3-c]quinolin-4-amine]
activity in primary screens (reporter gene panel) [4]: none of these compounds were active in any primary screens

SMILES: NCCc1cc2c(o1)c(N)nc1ccccc12 [Compound A8y, 2-(2-aminoethyl)furo[2,3-c]quinolin-4-amine]
activity in primary screens (reporter gene panel) [4]: none of these compounds were active in any primary screens

TLR8 agonistic activity (human TLR8): inactive
SMILES: CCCCc1cc2c(nc(N)c3ccccc32)o1 [Compound A18, 2-butylfuro[2,3-c]isoquinolin-5-amine]

EC50 (human TLR8; [7]): 24.4 µM
SMILES: CCCc1cc2ccnc(N)c2o1 [Compound A28a, 2-propylfuro[2,3-c]pyridin-7-amine]
TLR8 agonistic activity (human TLR8): retained TLR8-selective agonistic activities; also recorded: feeble activity

EC50 (human TLR8; [7]): 46.2 µM
SMILES: CCCCc1cc2ccnc(N)c2o1 [Compound A28b, 2-butylfuro[2,3-c]pyridin-7-amine]
TLR8 agonistic activity (human TLR8): retained TLR8-selective agonistic activities; also recorded: feeble activity

SMILES: CCCN(CCC)C(=O)C1=Cc2ccc(-c3ccc(C(=O)N4CCCC4)cc3)cc2N=C(N)C1 [VTX-2337]
TLR7/TLR8 agonism profile described (TLR7/TLR8): mixed TLR7/TLR8-agonism
